In PubChem BioAssay AID248 (DTP/NCI, 2004):
“And” between values parts separate entries of the source, which are not always exact repeats. Equal entries are not always repeated. Inconclusive results and toxic doses are left out. Rule as the data show it: active = T/C of 150% or more; inactive = T/C below 125%.

Test system: L1210 leukemia ip in BDF1 mice, survival T/C
Experiment: NCI In Vivo Anticancer Drug Screen. Data for tumor model L1210 Leukemia (intraperitoneal) in B6D2F1 (BDF1) mice
Conditions: endpoint: mean survival time, higher = longer survival
Outline: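 Ratio derived from survival: compound-dosed mice over vehicle-dosed mice, all bearing a transplantable tumor.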

[1] = dose: 100.0 mg/kg/injection, schedule: Q01DX009 (ip), vehicle: Klucel (hydroxypropylcellulose) (HPC)
[2] = dose: 100.0 mg/kg/injection, schedule: Q04DX003 (ip), vehicle: Klucel (hydroxypropylcellulose) (HPC)
[3] = dose: 200.0 mg/kg/injection, schedule: Q01DX009 (ip), vehicle: Klucel (hydroxypropylcellulose) (HPC)
[4] = dose: 200.0 mg/kg/injection, schedule: Q04DX003 (ip), vehicle: Klucel (hydroxypropylcellulose) (HPC)
[5] = dose: 400.0 mg/kg/injection, schedule: Q01DX009 (ip), vehicle: Klucel (hydroxypropylcellulose) (HPC)
[6] = dose: 50.0 mg/kg/injection, schedule: Q01DX009 (ip), vehicle: Klucel (hydroxypropylcellulose) (HPC)
[7] = dose: 100.0 mg/kg/injection, schedule: Q01DX001 (ip), vehicle: carboxymethylcellulose (CMC)
[8] = dose: 100.0 mg/kg/injection, schedule: Q04DX002 (ip), vehicle: Klucel (hydroxypropylcellulose) (HPC)
[9] = dose: 200.0 mg/kg/injection, schedule: Q04DX002 (ip), vehicle: Klucel (hydroxypropylcellulose) (HPC)
[10] = dose: 400.0 mg/kg/injection, schedule: Q04DX002 (ip), vehicle: Klucel (hydroxypropylcellulose) (HPC)
[11] = dose: 100.0 mg/kg/injection, schedule: Q04DX003 (ip), vehicle: saline with Tween-80
[12] = dose: 200.0 mg/kg/injection, schedule: Q04DX003 (ip), vehicle: saline with Tween-80
[13] = dose: 400.0 mg/kg/injection, schedule: Q04DX003 (ip), vehicle: saline with Tween-80
[14] = dose: 12.5 mg/kg/injection, schedule: Q04DX003 (ip), vehicle: saline with Tween-80
[15] = dose: 100.0 mg/kg/injection, schedule: Q04DX003 (ip), vehicle: saline
[16] = dose: 200.0 mg/kg/injection, schedule: Q04DX003 (ip), vehicle: saline
[17] = dose: 400.0 mg/kg/injection, schedule: Q04DX003 (ip), vehicle: saline
[18] = dose: 50.0 mg/kg/injection, schedule: Q01DX001 (ip), vehicle: saline
[19] = dose: 100.0 mg/kg/injection, schedule: Q01DX001 (ip), vehicle: saline

Measured: T/C

CCCCCC(CN(C)C)C(=O)/C=C/c1ccc(Cl)cc1 (stereo unspecified)
inactive: dose: 12.5 mg/kg/injection, schedule: Q01DX009 (sc), vehicle: other 100 % of control | dose: 25.0 mg/kg/injection, schedule: Q01DX009 (sc), vehicle: other 100 % of control | dose: 50.0 mg/kg/injection, schedule: Q01DX009 (sc), vehicle: other 93 % of control | dose: 50.0 mg/kg/injection, schedule: Q04DX003 (sc), vehicle: steriod suspending solution 95 % of control | dose: 75.0 mg/kg/injection, schedule: Q01DX009 (sc), vehicle: other 98 % of control | dose: 100.0 mg/kg/injection, schedule: Q01DX001 (sc), vehicle: steriod suspending solution 91 % of control | dose: 115.0 mg/kg/injection, schedule: Q01DX009 (sc), vehicle: other 100 % of control | dose: 200.0 mg/kg/injection, schedule: Q01DX001 (sc), vehicle: steriod suspending solution 116 % of control

c1ccc(COc2ccc3oc4ccccc4c3c2)cc1
inactive: [1] 96 % of control | [2] 94 % of control | [3] 94 % of control | [4] 96 % of control | [5] 96 % of control | dose: 400.0 mg/kg/injection, schedule: Q04DX003 (ip), vehicle: Klucel (hydroxypropylcellulose) (HPC) 91 % of control

ClC1=C(Cl)C2(Cl)C3COCC3C1(Cl)C2(Cl)Cl (stereo unspecified)
inactive: [6] 105 % of control | [1] 90 % of control | [2] 97 % of control | [3] 90 % of control | [4] 95 % of control

CCC1NC(=O)C(NC(=O)c2ncccc2O)C(C)OC(=O)C(c2ccccc2)NC(=O)C2CC(=O)CCN2C(=O)C(Cc2ccccc2)N(C)C(=O)C2CCCN2C1=O (stereo unspecified) (tested in a mixture with another compound)
inactive: dose: 18.75 mg/kg/injection, schedule: Q01DX009 (ip), vehicle: Klucel (hydroxypropylcellulose) (HPC) 91 % of control | dose: 37.5 mg/kg/injection, schedule: Q01DX009 (ip), vehicle: Klucel (hydroxypropylcellulose) (HPC) 107 % of control | dose: 75.0 mg/kg/injection, schedule: Q01DX009 (ip), vehicle: Klucel (hydroxypropylcellulose) (HPC) 98 % of control

c1ccc2nc(OCCN3CC3)ccc2c1
inactive: [7] 108 % of control

O=C(Nc1nccs1)Nc1ccccc1Cl
inactive: [1] 96 % of control | [8] 91 % of control | [3] 91 % of control | [9] 98 % of control | [5] 96 % of control | [10] 107 % of control

O=C(NCCCC(NC(=O)OCc1ccccc1)C(=O)NCCCNCCCCNCCCNC(=O)C(CCCNC(=O)OCc1ccccc1)NC(=O)OCc1ccccc1)OCc1ccccc1 (stereo unspecified)
inactive: dose: 10.0 mg/kg/injection, schedule: Q01DX Z (ip), vehicle: saline 90 % of control

C=CCNC(=O)CS(=O)(=O)c1ccc(C)cc1
inactive: [11] 94 % of control | [12] 100 % of control | [13] 96 % of control

CCC1(CC)c2ccccc2C(CC)(CC)[N+]1(C)C
inactive: [7] 102 % of control | dose: 200.0 mg/kg/injection, schedule: Q01DX001 (ip), vehicle: carboxymethylcellulose (CMC) 98 % of control

CCCCN1C(=S)NC(C)(C)C=C1C
inactive: [14] 95 % of control | dose: 25.0 mg/kg/injection, schedule: Q04DX003 (ip), vehicle: saline with Tween-80 98 % of control | dose: 50.0 mg/kg/injection, schedule: Q04DX003 (ip), vehicle: saline with Tween-80 96 % of control

OCCCN=Cc1ccccc1O.OCCCN=Cc1ccccc1O.[Cu]
inactive: dose: 9.5 mg/kg/injection, schedule: Q01DX001 (ip), vehicle: other 92 % of control | dose: 19.0 mg/kg/injection, schedule: Q01DX001 (ip), vehicle: other 97 % of control | dose: 38.0 mg/kg/injection, schedule: Q01DX001 (ip), vehicle: other 100 % of control | dose: 75.0 mg/kg/injection, schedule: Q01DX001 (ip), vehicle: other 114 % of control

O=[N+]([O-])c1ccc(Oc2ccc(Br)cc2)c([N+](=O)[O-])c1
inactive: [8] 103 % of control | [9] 93 % of control | [10] 97 % of control

CCOC(=O)c1ccc(NC(=O)/C=C/c2ccccc2)cc1
inactive: [1] 97 % of control | [3] 95 % of control | [5] 97 % of control

Nc1cccnn1
inactive: dose: 100.0 mg/kg/injection, schedule: Q01DX009 (ip), vehicle: saline 99 % of control | [15] 109 % of control | dose: 200.0 mg/kg/injection, schedule: Q01DX009 (ip), vehicle: saline 99 % of control | [16] 117 % of control | dose: 400.0 mg/kg/injection, schedule: Q01DX009 (ip), vehicle: saline 103 % of control | [17] 120 % of control

O=C(Nc1ccc(F)c([N+](=O)[O-])c1)Nc1cc(C(F)(F)F)ccc1Cl
inactive: [1] 101 % of control | [3] 90 % of control | [5] 89 % of control

Nc1ccc(Nc2ccncc2)cc1
inactive: [6] 98 % of control | [1] 97 % of control | [2] 93 % of control | [3] 98 % of control | [4] 95 % of control

Cc1ccc(N=NN(C)N=Nc2ccc(C)cc2)cc1
inactive: [18] 98 % of control | [19] 95 % of control | dose: 200.0 mg/kg/injection, schedule: Q01DX001 (ip), vehicle: saline 95 % of control | dose: 400.0 mg/kg/injection, schedule: Q01DX001 (ip), vehicle: saline 93 % of control

CC1CCC2(OC1)OC1CC3C4CCC5CC(O)C(O)CC5(C)C4CCC3(C)C1C2C (stereo unspecified)
inactive: dose: 50.0 mg/kg/injection, schedule: Q01DX009 (ip), vehicle: acetone 92 % of control | dose: 100.0 mg/kg/injection, schedule: Q01DX009 (ip), vehicle: acetone 92 % of control | [15] 92 % of control | dose: 200.0 mg/kg/injection, schedule: Q01DX009 (ip), vehicle: acetone 100 % of control | [16] 97 % of control | dose: 400.0 mg/kg/injection, schedule: Q01DX009 (ip), vehicle: acetone 94 % of control | [17] 94 % of control

c1ccc2c(c1)Sc1ccccc1N2CCCN1CCCC1
inactive: dose: 6.25 mg/kg/injection, schedule: Q04DX003 (ip), vehicle: saline 108 % of control | dose: 12.5 mg/kg/injection, schedule: Q04DX003 (ip), vehicle: saline 105 % of control | dose: 25.0 mg/kg/injection, schedule: Q04DX003 (ip), vehicle: saline 116 % of control | [18] 108 % of control and 123 % of control | dose: 50.0 mg/kg/injection, schedule: Q04DX003 (ip), vehicle: saline 106 % of control | [19] 97 % of control and 103 % of control

O=C(OCC(OC(=O)c1ccccc1)C(OC(=O)c1ccccc1)C(OC(=O)c1ccccc1)C(OC(=O)c1ccccc1)c1cnn(-c2ccccc2)n1)c1ccccc1 (stereo unspecified)
inactive: dose: 100.0 mg/kg/injection, schedule: Q04DX003 (ip), vehicle: acetone 87 % of control | dose: 200.0 mg/kg/injection, schedule: Q04DX003 (ip), vehicle: acetone 100 % of control | dose: 400.0 mg/kg/injection, schedule: Q04DX003 (ip), vehicle: acetone 90 % of control

N#CCC(C#N)C1C=CCC1 (stereo unspecified)
inactive: dose: 5.0 mg/kg/injection, schedule: Q01DX001 (ip), vehicle: saline 97 % of control | dose: 10.0 mg/kg/injection, schedule: Q01DX001 (ip), vehicle: saline 97 % of control | [14] 98 % of control

CC(C)COC(=O)c1ccc(NC(=O)Nc2ccccc2)cc1
inactive: dose: 100.0 mg/kg/injection, schedule: Q01DX009 (ip), vehicle: saline with Tween-80 93 % of control | [11] 92 % of control | dose: 200.0 mg/kg/injection, schedule: Q01DX009 (ip), vehicle: saline with Tween-80 88 % of control | [12] 88 % of control | dose: 400.0 mg/kg/injection, schedule: Q01DX009 (ip), vehicle: saline with Tween-80 97 % of control | [13] 87 % of control

COC(=O)C(=O)CC(=O)c1ccc(C)cc1
inactive: [8] 103 % of control | [9] 95 % of control | [10] 106 % of control

CCN(CCCl)CCCNc1c2ccc(Cl)cc2nc2ccc(OC)nc12
inactive: dose: 1.5 mg/kg/injection, schedule: Q01DX009 (ip), vehicle: saline 119 % of control | dose: 6.0 mg/kg/injection, schedule: Q01DX009 (ip), vehicle: saline 91 % of control
